Data reported in the supplement of paper PMC10307832.

Experiments:
Assay in all cases: relative viability (nuclei count vs DMSO), 5 days (fraction); higher = more cells survive
[1] = compound: CN(C)C[C@@H]1CCn2cc(c3ccccc32)C2=C(C(=O)NC2=O)c2cn(c3ccccc23)CCO1 [Ruboxistaurin] + Cc1cc(Nc2cc(N3CCN(C)CC3)nc(Sc3ccc(NC(=O)C4CC4)cc3)n2)n[nH]1 [Tozasertib] (partner 0.1 µM)
Summary of the method: (§1)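 Lung cancer cell lines in 1536-well plates got either a single drug or a fixed anchor-drug dose together with five library-drug doses (not always all listed) in √10 steps, by pin tool, on the day after seeding. Nuclei were counted after 5 days, and relative viability is the treated-to-vehicle ratio of nuclei counts. Values are medians of duplicate plates.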

[2] = compound: CN(C)C[C@@H]1CCn2cc(c3ccccc32)C2=C(C(=O)NC2=O)c2cn(c3ccccc23)CCO1 [Ruboxistaurin] + CC1(C)CCC(c2ccc(Cl)cc2)=C(CN2CCN(c3ccc(C(=O)NS(=O)(=O)c4ccc(N[C@H](CCN5CCOCC5)CSc5ccccc5)c(S(=O)(=O)C(F)(F)F)c4)cc3)CC2)C1 [Navitoclax] (partner 0.5 µM)
Summary of the method: as §1

Ruboxistaurin + OSI-027 = compound: CN(C)C[C@@H]1CCn2cc(c3ccccc32)C2=C(C(=O)NC2=O)c2cn(c3ccccc23)CCO1 [Ruboxistaurin] + COc1cccc2cc(-c3nc([C@H]4CC[C@H](C(=O)O)CC4)n4ncnc(N)c34)[nH]c12 [OSI-027] (partner 0.5 µM)
Summary of the method: as §1

[3] = compound: CN(C)C[C@@H]1CCn2cc(c3ccccc32)C2=C(C(=O)NC2=O)c2cn(c3ccccc23)CCO1 [Ruboxistaurin] + COc1cc2c(Oc3ccc(NC(=O)C4(C(=O)Nc5ccc(F)cc5)CC4)cc3F)ccnc2cc1OCCCN1CCOCC1 [Foretinib] (partner 0.25 µM)
Summary of the method: as §1

[4] = compound: CN(C)C[C@@H]1CCn2cc(c3ccccc32)C2=C(C(=O)NC2=O)c2cn(c3ccccc23)CCO1 [Ruboxistaurin] + Nc1nc2[nH]cc(CCc3ccc(C(=O)N[C@@H](CCC(=O)O)C(=O)O)cc3)c2c(=O)[nH]1 [Pemetrexed] (partner 0.2 µM)
Summary of the method: as §1

| Cell Line | relative viability ([1]; first compound 0.08 µM) | relative viability ([1]; first compound 0.8 µM) | relative viability ([1]; first compound 2.53 µM) | relative viability ([1]; first compound 8 µM) | relative viability ([2]; first compound 0.08 µM) | relative viability ([2]; first compound 0.8 µM) | relative viability ([2]; first compound 2.53 µM) | relative viability ([2]; first compound 8 µM) | relative viability (Ruboxistaurin + OSI-027; first compound 0.08 µM) | relative viability (Ruboxistaurin + OSI-027; first compound 0.8 µM) | relative viability (Ruboxistaurin + OSI-027; first compound 2.53 µM) | relative viability (Ruboxistaurin + OSI-027; first compound 8 µM) | relative viability ([3]; first compound 0.08 µM) | relative viability ([3]; first compound 0.8 µM) | relative viability ([3]; first compound 2.53 µM) | relative viability ([3]; first compound 8 µM) | relative viability ([4]; first compound 0.08 µM) | relative viability ([4]; first compound 0.8 µM) | relative viability ([4]; first compound 2.53 µM) | relative viability ([4]; first compound 8 µM) |
| --- | --- | --- | --- | --- | --- | --- | --- | --- | --- | --- | --- | --- | --- | --- | --- | --- | --- | --- | --- | --- |
| NCI-H1734 | 0.282 | 0.224 | 0.249 | 0.243 | 0.964 | 0.671 | 0.857 | 0.745 | 0.628 | 0.411 | 0.56 | 0.385 | 0.852 | 0.783 | 0.922 | 0.683 | 0.425 | 0.394 | 0.4 | 0.4 |
| NCI-H1755 | 0.608 | 0.55 | 0.555 | 0.525 | 1.05 | 0.934 | 0.963 | 0.962 | 0.714 | 0.621 | 0.614 | 0.549 | 0.907 | 0.903 | 0.908 | 0.888 | 0.452 | 0.476 | 0.35 | 0.471 |
| NCI-H1793 | 0.346 | 0.242 | 0.408 | 0.301 | 0.503 | 0.382 | 0.468 | 0.604 | 0.262 | 0.239 | 0.273 | 0.265 | 0.637 | 0.576 | 0.652 | 0.687 | 1.13 | – | 1.03 | 0.876 |
| NCI-H1915 | 0.456 | 0.397 | 0.396 | 0.375 | 0.811 | 0.752 | 0.765 | 0.867 | 0.645 | 0.489 | 0.505 | 0.363 | 1.05 | 1.03 | 1.02 | 0.899 | 0.508 | 0.439 | 0.443 | 0.426 |
| NCI-H1944 | 0.249 | 0.206 | 0.239 | 0.237 | 1.08 | 1 | 1.04 | 1.09 | 0.411 | 0.334 | 0.404 | 0.271 | 0.933 | 0.844 | 0.856 | 0.719 | 0.6 | 0.55 | 0.667 | 0.659 |
| NCI-H1975 | 0.851 | 0.54 | 0.384 | 0.189 | 1.2 | 1.04 | 1.25 | 0.996 | 0.751 | 0.578 | 0.645 | 0.502 | 0.979 | 1.03 | 1.05 | 0.856 | 0.328 | 0.276 | 0.301 | 0.286 |
| NCI-H1993 | 0.574 | 0.541 | 0.568 | 0.538 | 1.08 | 0.919 | 0.994 | 0.689 | 0.6 | 0.479 | 0.543 | 0.531 | 0.941 | 0.623 | 0.905 | 0.691 | 0.482 | 0.565 | 0.633 | 0.577 |
| NCI-H2009 | 0.765 | 0.678 | 0.768 | 0.473 | 1.21 | 1.16 | 1.18 | 1.17 | 0.735 | 0.536 | 0.608 | 0.548 | 1.29 | 1.22 | 1.28 | 1.24 | 1.05 | 1.08 | 1.02 | 1.07 |
| NCI-H2023 | 0.327 | 0.256 | 0.207 | 0.181 | 0.973 | 0.837 | 0.947 | 0.89 | 0.438 | 0.309 | 0.271 | 0.158 | 1.22 | – | 0.787 | 0.693 | 0.228 | 0.188 | 0.224 | 0.151 |
| NCI-H2085 | 0.846 | 0.74 | 0.773 | 0.797 | 1.27 | 1.1 | 1.27 | 1.26 | 0.731 | 0.521 | 0.791 | 0.446 | 0.878 | 0.757 | 1.28 | 1.12 | 1.07 | 0.868 | 0.944 | 0.904 |
| NCI-H2087 | 0.234 | 0.192 | 0.241 | 0.159 | 1.24 | 0.866 | 1.17 | 0.957 | 0.627 | 0.492 | 0.449 | 0.309 | 1.2 | 0.934 | 1.07 | 0.876 | 0.641 | 0.679 | 0.662 | 0.693 |
| NCI-H2126 | 0.975 | 0.803 | 0.923 | 0.696 | 0.914 | 0.78 | 0.844 | 0.794 | 0.811 | 0.638 | 0.776 | 0.639 | 1.14 | 1.13 | 1.2 | 1.12 | 0.699 | 0.65 | 0.674 | 0.623 |
| NCI-H2170 | 0.719 | 0.737 | 0.686 | 0.745 | 0.57 | 0.592 | 0.581 | 0.56 | 0.736 | 0.599 | 0.67 | 0.536 | 1.02 | 1.02 | 1.05 | 1.05 | 0.274 | 0.263 | 0.248 | 0.303 |
| NCI-H2228 | 0.317 | 0.202 | 0.237 | 0.187 | 0.922 | 0.907 | 1.15 | 0.692 | 0.6 | 0.439 | 0.549 | 0.281 | 0.906 | 0.772 | 0.86 | 0.729 | 0.387 | 0.335 | 0.337 | 0.322 |
| NCI-H2347 | 0.557 | 0.468 | 0.614 | 0.415 | 0.871 | 0.707 | 0.749 | 0.786 | 0.483 | 0.429 | 0.354 | 0.356 | 0.951 | 0.798 | 1.05 | 0.763 | 0.45 | 0.413 | 0.372 | 0.44 |
